The results in this text go back to patent US11028051B2, “Tetrahydroquinoline-based bromodomain inhibitors” (St. Jude Children's Research Hospital, priority 2016, dated 2021).

For orientation: EC50 means the concentration giving half of the maximal effect.

Some results are limits rather than exact numbers.

Common to all, as to test: competitive TR-FRET assay, BET-BD with acetylated peptide ligand
Format in all cases: binding
(Time-resolved FRET reads energy transfer from a long-lived donor to a nearby acceptor.)

Assay [1] concerns the target BRD2-BD1 (Homo sapiens (Human), UniProt P25440). As to conditions: BRD2-BD1; Table 11 additional modifications; read-out: 2.1 EC50. The protocol: (§1) Inhibitor potency was determined using a competitive TR-FRET assay as detailed herein, measuring interaction of the respective BET-BD with an acetylated peptide ligand (Table 2).
Assay [2] deals with BRD2-BD2 (Homo sapiens (Human), UniProt P25440). As to conditions: for EC50: BRD2-BD2, Table 11 additional modifications, read-out: 2.2 EC50; for 2.1/2.2: ratio of BRD2-BD1 EC50 to BRD2-BD2 EC50 (selectivity). The protocol: as §1
Sequence of BRD2-BD2 (P25440 344-453): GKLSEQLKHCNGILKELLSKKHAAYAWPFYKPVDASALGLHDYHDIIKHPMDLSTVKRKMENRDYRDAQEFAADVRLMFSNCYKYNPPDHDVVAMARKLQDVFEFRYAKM
Assay [3] addresses BRD3-BD1 (Homo sapiens (Human), UniProt Q15059). As to conditions: BRD3-BD1; Table 11 additional modifications; read-out: 3.1 EC50. Here is the method:
as §1

Assay [4] has as its target BRD4-BD1 (Homo sapiens (Human), UniProt O60885). As to conditions: BRD4-BD1; Table 11 additional modifications; read-out: 4.1 EC50. The protocol: as §1
For assay [5], the target named is BRDT (Homo sapiens, UniProt Q58F21). As to conditions: BRDT; Table 11 additional modifications; read-out: BRDT EC50. The protocol: as §1

Sequence of BRD2-BD1 (P25440 74-180): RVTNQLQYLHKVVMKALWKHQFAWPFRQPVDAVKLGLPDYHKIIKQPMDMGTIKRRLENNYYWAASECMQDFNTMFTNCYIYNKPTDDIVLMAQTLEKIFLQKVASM
Sequence of BRD3-BD1 (Q15059 34-140): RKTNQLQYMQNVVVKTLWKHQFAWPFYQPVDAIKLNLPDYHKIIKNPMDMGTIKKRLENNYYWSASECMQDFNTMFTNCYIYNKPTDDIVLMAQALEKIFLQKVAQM

As to `CC(=O)N1c2ccc(-c3cccc(NCC(C)C)c3)cc2[C@H](NC(=O)OC(C)C)C[C@@H]1C` [compound 96], the EC50 was found to be 2600 nM in assay [1]; 790 nM in assay [2]; 830 nM in assay [3]; 1900 nM in assay [4]; 6200 nM in assay [5]. Further, in assay [2], the 2.1/2.2 turned out to be 11.

Consider `CC(=O)N1c2ccc(-c3ccnn3C)cc2[C@H](NC(=O)OC(C)C)C[C@@H]1C` [compound 97], for which the half-maximal effective concentration (EC50) in assay [1] was determined as 100000 nM; in assay [2], 2500 nM; in assay [3], 7800 nM; in assay [4] it was 20000 nM; in assay [5], 40000 nM. The 2.1/2.2 in assay [2] was 4.8.

For the compound `CC(=O)N1c2ccc(-c3cccc(NC(=O)C(C)C)c3)cc2[C@H](NC(=O)OC(C)C)C[C@@H]1C` [compound 98], the EC50 was found to be 1500 nM in assay [1]; 120 nM in assay [2]; 240 nM in assay [3]; 900 nM in assay [4]; 1200 nM in assay [5]. Moreover, in assay [2], the 2.1/2.2 is 15.

On to `CC(=O)N1c2ccc(-c3cccc(NC(=O)C4CCCCC4)c3)cc2[C@H](NC(=O)OC(C)C)C[C@@H]1C` [compound 99], for which the EC50 in assay [1] came out at 940 nM; in assay [2], 120 nM; in assay [3] it was 250 nM; in assay [4], 1000 nM; in assay [5], 730 nM. Moreover, the 2.1/2.2 in assay [2] came to 12.

Turning to `CC(=O)N1c2ccc(-c3cccc(NCCC(C)C)c3)cc2[C@H](NC(=O)OC(C)C)C[C@@H]1C` [compound 100], the EC50 was determined as 3800 nM in assay [1]; 40000 nM in assay [2]; 690 nM in assay [3]; 6000 nM in assay [4]; 40000 nM in assay [5]. Also, the 2.1/2.2 in assay [2] stood at 7.3.

With `CCCC(=O)Nc1cccc(-c2ccc3c(c2)[C@H](NC(=O)OC(C)C)C[C@H](C)N3C(C)=O)c1` [compound 101], the concentration giving a half-maximal response (EC50) in assay [1] was 1100 nM; in assay [2] it was 110 nM; in assay [3] it was 340 nM; in assay [4], 950 nM; in assay [5] it was 1300 nM. In assay [2], the 2.1/2.2 is 3.3.

On to `CC(=O)N1c2ccc(-c3cccc(NC(=O)C4CCC(C)CC4)c3)cc2[C@H](NC(=O)OC(C)C)C[C@@H]1C` (some centres unmarked) [compound 102], for which the concentration giving a half-maximal response (EC50) is 4800 nM in assay [1]; 430 nM in assay [2]; 530 nM in assay [3]; 3800 nM in assay [4]; 1200 nM in assay [5]. For the same compound, the 2.1/2.2 in assay [2] came to 40.

In the case of `CC(=O)N1c2ccc(-c3cccc(NCc4ccc(C)cc4)c3)cc2[C@H](NC(=O)OC(C)C)C[C@@H]1C` [compound 103], the EC50 in assay [1] came to 3700 nM; in assay [2], 2800 nM; in assay [3] it was 890 nM; in assay [4] it was 3500 nM; in assay [5], 4800 nM. Moreover, the 2.1/2.2 in assay [2] is 13.

Regarding `CC(=O)N1c2ccc(-c3cccc(NC(=O)CC(C)C)c3)cc2[C@H](NC(=O)OC(C)C)C[C@@H]1C` [compound 104], the EC50 in assay [1] worked out at 1600 nM; in assay [2] it was 290 nM; in assay [3], 410 nM; in assay [4] it was 940 nM; in assay [5] it was 1600 nM. Also, in assay [2], the 2.1/2.2 came out at 7.8.

As for `CC(=O)N1c2ccc(-c3cccc(NCC4CCOC4)c3)cc2[C@H](NC(=O)OC(C)C)C[C@@H]1C` (some centres unmarked) [compound 105], the EC50 in assay [1] came to 400 nM; in assay [2] it was 30 nM; in assay [3], 100 nM; in assay [4] it was 200 nM; in assay [5], 1100 nM. For the same compound, in assay [2], the 2.1/2.2 is 0.095.

As to `CC(=O)N1c2ccc(-c3cccc(NCCC(C)(C)C)c3)cc2[C@H](NC(=O)OC(C)C)C[C@@H]1C` [compound 106], the EC50 in assay [1] amounted to 3900 nM; in assay [2], 43000 nM; in assay [3], 980 nM; in assay [4] it was 3300 nM; in assay [5], 7000 nM. Besides, the 2.1/2.2 in assay [2] is 10.

For `CC(=O)N1c2ccc(-c3cccc(NC(=O)c4ccccc4)c3)cc2[C@H](NC(=O)OC(C)C)C[C@@H]1C` [compound 107], the EC50 was determined as 1200 nM in assay [1]; 160 nM in assay [2]; 170 nM in assay [3]; 810 nM in assay [4]; 490 nM in assay [5]. In assay [2], the 2.1/2.2 turned out to be 11.

Consider `CC(=O)N1c2ccc(-c3cccc(NCC4CC4)c3)cc2[C@H](NC(=O)OC(C)C)C[C@@H]1C` [compound 108], for which the EC50 is 2500 nM in assay [1]; 360 nM in assay [2]; 370 nM in assay [3]; 1700 nM in assay [4]; 59000 nM in assay [5]. Also, the 2.1/2.2 in assay [2] is 1.3.

Consider `CC(=O)N1c2ccc(-c3cccc(NCCCc4ccccc4)c3)cc2[C@H](NC(=O)OC(C)C)C[C@@H]1C` [compound 109], for which the concentration for a half-maximal effect (EC50) is 11000 nM in assay [1]; 280 nM in assay [2]; 670 nM in assay [3]; above 11000 nM in assay [4]; 11000 nM in assay [5]. The 2.1/2.2 in assay [2] was 5.6.

As to `CC(=O)N1c2ccc(-c3cccc(NC(=O)Cc4ccccc4)c3)cc2[C@H](NC(=O)OC(C)C)C[C@@H]1C` [compound 110], the EC50 was determined as 1300 nM in assay [1]; 120 nM in assay [2]; 230 nM in assay [3]; 1100 nM in assay [4]; 1600 nM in assay [5]. Further, the 2.1/2.2 in assay [2] was 14.

On to `CCCNc1cccc(-c2ccc3c(c2)[C@H](NC(=O)OC(C)C)C[C@H](C)N3C(C)=O)c1` [compound 111], for which the EC50 in assay [1] was 1900 nM; in assay [2], 520 nM; in assay [3] it was 650 nM; in assay [4], 1800 nM; in assay [5] it was 3900 nM. Also, in assay [2], the 2.1/2.2 amounted to 0.091.

For the compound `CC(=O)N1c2ccc(-c3cccc(NCC4CCCCC4)c3)cc2[C@H](NC(=O)OC(C)C)C[C@@H]1C` [compound 112], the EC50 is 7200 nM in assay [1]; 2500 nM in assay [2]; 2100 nM in assay [3]; 5000 nM in assay [4]; 4400 nM in assay [5]. Besides, the 2.1/2.2 in assay [2] turned out to be 3.6.

As for `CC(=O)N1c2ccc(-c3cccc(NC(=O)C(C)(C)C)c3)cc2[C@H](NC(=O)OC(C)C)C[C@@H]1C` [compound 113], the EC50 is 2200 nM in assay [1]; 110 nM in assay [2]; 410 nM in assay [3]; 1400 nM in assay [4]; 7500 nM in assay [5]. The 2.1/2.2 in assay [2] is on record as 4.8.

For `CCCCNc1cccc(-c2ccc3c(c2)[C@H](NC(=O)OC(C)C)C[C@H](C)N3C(C)=O)c1` [compound 114], the 50% effective concentration (EC50) in assay [1] was 790 nM; in assay [2], 50 nM; in assay [3], 120 nM; in assay [4] it was 470 nM; in assay [5], 52000 nM. Further, the 2.1/2.2 in assay [2] is on record as 9.1.

Regarding `CCC(=O)Nc1cccc(-c2ccc3c(c2)[C@H](NC(=O)OC(C)C)C[C@H](C)N3C(C)=O)c1` [compound 115], the EC50 was 370 nM in assay [1]; 40 nM in assay [2]; 90 nM in assay [3]; 160 nM in assay [4]; 330 nM in assay [5]. Further, in assay [2], the 2.1/2.2 was determined as 7.2.

With `CC(=O)N1c2ccc(-c3cccc(NC(=O)CCc4ccccc4)c3)cc2[C@H](NC(=O)OC(C)C)C[C@@H]1C` [compound 116], the EC50 in assay [1] was determined as 1200 nM; in assay [2] it was 380 nM; in assay [3], 280 nM; in assay [4], 2300 nM; in assay [5], 1200 nM. Also, the 2.1/2.2 in assay [2] amounted to 7.0.

For the compound `CC(=O)N1c2ccc(-c3cccc(NCc4ccccc4)c3)cc2[C@H](NC(=O)OC(C)C)C[C@@H]1C` [compound 117], the 50% effective concentration (EC50) was 600 nM in assay [1]; 100 nM in assay [2]; 230 nM in assay [3]; 520 nM in assay [4]; 1200 nM in assay [5]. The 2.1/2.2 in assay [2] came to 39.

Turning to `COC(=O)c1ccc(N[C@@H]2C[C@H](C)N(C(C)=O)c3ccc(-c4cccc(NC(C)=O)c4)cc32)c(C)c1` [compound 160], the EC50 in assay [1] was 2200 nM; in assay [3] it was 3000 nM; in assay [4], above 30000 nM; in assay [5], 3300 nM. The 2.1/2.2 in assay [2] stood at 44.

Take `COC(=O)c1ccc(N[C@@H]2C[C@H](C)N(C(C)=O)c3ccc(-c4cccc(NC(C)=O)c4)cc32)c(OC)c1` [compound 161]: the EC50 in assay [1] was 870 nM; in assay [2], 44 nM; in assay [3] it was above 30000 nM; in assay [4], above 30000 nM; in assay [5], 760 nM. In addition, in assay [2], the 2.1/2.2 is 20.

As to `CCCCOc1cccc(-c2ccc3c(c2)[C@H](Nc2ccc(C(=O)OC)cc2)C[C@H](C)N3C(C)=O)c1` [compound 164], the EC50 in assay [1] was determined as 22000 nM; in assay [2], 220 nM; in assay [3] it was 30000 nM; in assay [4], 57000 nM; in assay [5], 32000 nM. Moreover, the 2.1/2.2 in assay [2] is listed as 100.

As to `COC(=O)c1ccc(N[C@@H]2C[C@H](C)N(C(C)=O)c3ccc(-c4cccc(OCCN5CCOCC5)c4)cc32)cc1` [compound 166], the 50% effective concentration (EC50) in assay [1] turned out to be 130 nM; in assay [2], 20 nM; in assay [3], 150 nM; in assay [4], 640 nM; in assay [5], 280 nM. Besides, the 2.1/2.2 in assay [2] was found to be 6.5.
